Data published in US20240279221A1, “HETEROCYCLIC COMPOUNDS AND METHODS OF USE” (Schrödinger, Inc., priority 2021, published 2024).

Experiments:
[1] = biological target: SOS1:KRAS (G12C) interaction (Homo sapiens (Human), UniProt Q07889); assay: SOS1-KRas(G12C) FRET Assay; format: binding; details: 0.5 nM His10-SOS1 (res. 564-1049), 2.5 nM GST-KRAS (res. 1-169, G12C); read-out: SOS-KRas(G12C) FRET IC50
Summary of the method: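 TR-FRET measured binding of His10-SOS1 (res. 564-1049, 0.5 nM) to GST-KRAS G12C (res. 1-169, 2.5 nM), with anti-GST-Eu(K) and anti-6His-XL665 labels, in PBS with BSA, MgCl2, KF and DTT; 0.5% DMSO. Compound and SOS1 were pre-incubated 15 min at 25° C, KRAS was added, and the plate was read at 665/615 nm after 2 h at RT. IC50 and Hill slope came from non-linear regression.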

human SOS1 = human SOS1 (Homo sapiens (Human), UniProt Q07889); assay: Surface Plasmon Resonance (SPR) SOS1 Binding Assay; details: biotinylated SOS1 (res. 564-1049), 25° C., kinetic or steady state fit, read-out: KD for hSOS1
human SOS1, sequence (Q07889 564-1049): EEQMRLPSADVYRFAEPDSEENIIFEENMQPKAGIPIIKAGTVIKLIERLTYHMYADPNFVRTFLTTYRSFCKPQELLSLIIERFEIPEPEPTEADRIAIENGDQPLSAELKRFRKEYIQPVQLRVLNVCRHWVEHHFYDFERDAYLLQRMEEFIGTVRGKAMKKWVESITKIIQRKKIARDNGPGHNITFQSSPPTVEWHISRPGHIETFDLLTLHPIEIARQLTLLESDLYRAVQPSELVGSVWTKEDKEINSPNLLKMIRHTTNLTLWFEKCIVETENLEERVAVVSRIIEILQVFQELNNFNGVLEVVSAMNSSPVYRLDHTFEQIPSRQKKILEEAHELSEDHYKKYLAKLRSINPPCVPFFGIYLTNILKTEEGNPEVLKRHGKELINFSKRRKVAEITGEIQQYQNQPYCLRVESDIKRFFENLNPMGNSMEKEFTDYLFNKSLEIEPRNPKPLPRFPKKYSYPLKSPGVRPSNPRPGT
Method: Binding to SOS1 was measured using a SPR assay with purified recombinant human SOS1 substrate (res. 564-1049 with N-terminal Avi tag; purified and biotinylated based on Hillig, et al., Proc Natl Acad Sci USA (2019); 116(7):2551-2560). SPR measurements were performed on a Biacore 8K SPR instrument (GE Healthcare, Sweden). Assays were performed at 25° C. using Series S SA sensor chips pre-coated with streptavidin (GE Healthcare, Cat. BR100531). Biotinylated SOS1 diluted in sample buffer (20 mM Tris HCl, 150 mM NaCl, 1 mM DTT, 0.05% TWEEN 20, 1 mM MgCl2, pH 8.0) was captured to one flow cell of the chip to about 3,000 resonance units (RU) using sample buffer supplemented with 5% DMSO as a running buffer. Serial dilutions of the assayed compounds in the running buffer at 100, 50 or 0.5 μM were injected for 60 s at a flow rate of 30 μL/min and association phases were recorded. Dissociation of the samples was monitored for 600 s. Data processing was performed using Biacore Insight Software (Biacore, GE Healthcare). Sensorgrams recorded on a SA flow cell without captured protein were subtracted from sensorgrams recorded on the SOS1 surface. Blank injections of running buffer were used for double referencing and solvent correction was applied to all sample sensorgrams to correct for buffer mismatches. KDs were estimated using a kinetic or steady state, where applicable, fitting model describing a reversible equilibrium with 1:1 binding between SOS1 and the compound.

SOS1:KRAS (G12C) interaction, sequence (Q07889 564-1049, stated change not applied): as the sequence (Q07889 564-1049) above

Row | SMILES | IC50 [1] | Kd (human SOS1)
1 | CCOc1c(=O)n(C2CC2)cc2c(N[C@H](C)c3cccc(C(F)(F)F)c3C)nn(C)c(=O)c12 [Example 19, (R)-6-cyclopropyl-8-ethoxy-2-methyl-4-((1-(2-methyl-3-(trifluoromethyl)phenyl)ethyl)amino)-2,6-dihydropyrido[3,4-d]pyridazine-1,7-dione] | 806 nM | 161 nM
2 | Cc1c([C@@H](C)Nc2nn(C)c(=O)c3c(N4CC[C@@H](N)C4)c(=O)n(C4CC4)cc23)cccc1C(F)(F)F [Example 20, 8-((R)-3-aminopyrrolidin-1-yl)-6-cyclopropyl-2-methyl-4-(((R)-1-(2-methyl-3-(trifluoromethyl)phenyl)ethyl)amino)-2,6-dihydropyrido[3,4-d]pyridazine-1,7-dione] | 284 nM | 63 nM
3 | Cc1c([C@@H](C)Nc2nn(CCN)c(=O)c3cc(=O)n(C4CC4)cc23)cccc1C(F)(F)F [Example 24, (R)-2-(2-aminoethyl)-6-cyclopropyl-4-((1-(2-methyl-3-(trifluoromethyl)phenyl)ethyl)amino)-2,6-dihydropyrido[3,4-d]pyridazine-1,7-dione] | 239 nM | 34 nM
4 | C[C@@H](Nc1nn(C)c(=O)c2cc(=O)n(C3CCOCC3)cc12)c1cccc(C(C)(F)F)c1F [Example 36, (R)-4-((1-(3-(1,1-difluoroethyl)-2-fluorophenyl)ethyl)amino)-2-methyl-6-(tetrahydro-2H-pyran-4-yl)-2,6-dihydropyrido[3,4-d]pyridazine-1,7-dione] | 33.3 nM | 16 nM
5 | COc1c(=O)n(C2CCOCC2)cc2c(N[C@H](C)c3cccc(C(F)(F)C(C)(C)O)c3F)nn(C)c(=O)c12 [Example 41, (R)-4-((1-(3-(1,1-difluoro-2-hydroxy-2-methylpropyl)-2-fluorophenyl)ethyl)amino)-8-methoxy-2-methyl-6-(tetrahydro-2H-pyran-4-yl)-2,6-dihydropyrido[3,4-d]pyridazine-1,7-dione] | 27.9 nM | 14 nM
6 | C[C@@H](Nc1nn(C)c(=O)c2cc(=O)n(C3CC3)cc12)c1cccc(C(F)(F)C(C)(C)O)c1F [Example 42, (R)-6-cyclopropyl-4-((1-(3-(1,1-difluoro-2-hydroxy-2-methylpropyl)-2-fluorophenyl)ethyl)amino)-2-methyl-2,6-dihydropyrido[3,4-d]pyridazine-1,7-dione] | 54.9 nM | 34 nM
7 | COc1c(=O)n(C2CCCCC2)cc2c(N[C@H](C)c3cccc(C(F)F)c3F)nn(C)c(=O)c12 [Example 49, (R)-6-cyclohexyl-4-((1-(3-(difluoromethyl)-2-fluorophenyl)ethyl)amino)-8-methoxy-2-methyl-2,6-dihydropyrido[3,4-d]pyridazine-1,7-dione] | 51.3 nM | 13 nM
8 | C[C@@H](Nc1nn(C)c(=O)c2cc(=O)n(C34CC(N5CCOCC5)(C3)C4)cc12)c1cccc(C(F)F)c1F [Example 50, (R)-4-((1-(3-(difluoromethyl)-2-fluorophenyl)ethyl)amino)-2-methyl-6-(3-morpholinobicyclo[1.1.1]pentan-1-yl)-2,6-dihydropyrido[3,4-d]pyridazine-1,7-dione] | 54.4 nM | 29 nM
9 | CNCc1ccccc1-c1csc([C@@H](C)Nc2nn(C)c(=O)c3cc(=O)n(C4CC4)cc23)c1 [Example 57, (R)-6-cyclopropyl-2-methyl-4-((1-(4-(2-((methylamino)methyl)phenyl)thiophen-2-yl)ethyl)amino)-2,6-dihydropyrido[3,4-d]pyridazine-1,7-dione] | 21.9 nM | 8 nM

Second part, the compound after the results:

Row | IC50 [1] | Kd (human SOS1) | SMILES
10 | 53.8 nM | 16 nM | C[C@@H](Nc1nn(C)c(=O)c2cc(=O)n(C3CCOCC3)cc12)c1cccc(C(F)F)c1F [Example 18, (R)-4-((1-(3-(difluoromethyl)-2-fluorophenyl)ethyl)amino)-2-methyl-6-(tetrahydro-2H-pyran-4-yl)-2,6-dihydropyrido[3,4-d]pyridazine-1,7-dione]
11 | 300 nM | 70 nM | Cc1c([C@@H](C)Nc2nn(C)c(=O)c3c(N4CC[C@H](N)C4)c(=O)n(C4CC4)cc23)cccc1C(F)(F)F [Example 21, 8-((S)-3-aminopyrrolidin-1-yl)-6-cyclopropyl-2-methyl-4-(((R)-1-(2-methyl-3-(trifluoromethyl)phenyl)ethyl)amino)-2,6-dihydropyrido[3,4-d]pyridazine-1,7-dione]
12 | 350 nM | 74 nM | Cc1c([C@@H](C)Nc2nn(C)c(=O)c3cc(=O)n(C4CCNCC4)cc23)cccc1C(F)(F)F [Example 22, (R)-2-methyl-4-((1-(2-methyl-3-(trifluoromethyl)phenyl)ethyl)amino)-6-(piperidin-4-yl)-2,6-dihydropyrido[3,4-d]pyridazine-1,7-dione]
13 | 61.9 nM | 42 nM | Cc1c([C@@H](C)Nc2nn(C)c(=O)c3cc(=O)n([C@H]4C[C@H](n5ccnc5)C4)cc23)cccc1C(F)(F)F [Example 29, 6-((1r,3R)-3-(1H-imidazol-1-yl)cyclobutyl)-2-methyl-4-(((R)-1-(2-methyl-3-(trifluoromethyl)phenyl)ethyl)amino)-2,6-dihydropyrido[3,4-d]pyridazine-1,7-dione]
14 | 78.4 nM | 17 nM | Cc1c([C@@H](C)Nc2nn(C)c(=O)c3c([C@H]4CCCN4)c(=O)n(C4CC4)cc23)cccc1C(F)(F)F [Example 35, 6-cyclopropyl-2-methyl-4-(((R)-1-(2-methyl-3-(trifluoromethyl)phenyl)ethyl)amino)-8-((R)-pyrrolidin-2-yl)-2,6-dihydropyrido[3,4-d]pyridazine-1,7-dione]
15 | 21.1 nM | 9 nM | C[C@@H](Nc1nn(C)c(=O)c2cc(=O)n(C3CCOCC3)cc12)c1cccc(C(F)(F)C(C)(C)O)c1F [Example 40, (R)-4-((1-(3-(1,1-difluoro-2-hydroxy-2-methylpropyl)-2-fluorophenyl)ethyl)amino)-2-methyl-6-(tetrahydro-2H-pyran-4-yl)-2,6-dihydropyrido[3,4-d]pyridazine-1,7-dione]
16 | 60.5 nM | 24 nM | C[C@@H](Nc1nn(C)c(=O)c2cc(=O)n(C3(C(F)F)CC3)cc12)c1cccc(C(F)F)c1F [Example 43, (R)-4-((1-(3-(difluoromethyl)-2-fluorophenyl)ethyl)amino)-6-(1-(difluoromethyl)cyclopropyl)-2-methyl-2,6-dihydropyrido[3,4-d]pyridazine-1,7-dione]
17 | 62.4 nM | 21 nM | C[C@@H](Nc1nn(C)c(=O)c2cc(=O)n(C3CCOCC3)cc12)c1cccc2c(F)coc12 [Example 46, (R)-4-((1-(3-fluorobenzofuran-7-yl)ethyl)amino)-2-methyl-6-(tetrahydro-2H-pyran-4-yl)-2,6-dihydropyrido[3,4-d]pyridazine-1,7-dione]
18 | 82.4 nM | 6 nM | C[C@@H](Nc1nn(C)c(=O)c2cc(=O)n(C3CCOCC3)cc12)c1cccc2c1OCC2(F)F [Example 47, (R)-4-((1-(3,3-difluoro-2,3-dihydrobenzofuran-7-yl)ethyl)amino)-2-methyl-6-(tetrahydro-2H-pyran-4-yl)-2,6-dihydropyrido[3,4-d]pyridazine-1,7-dione]
19 | 192 nM | 75 nM | CC(=O)c1c(=O)n(C2CC2)cc2c(N[C@H](C)c3cccc(C(F)(F)F)c3C)nn(C)c(=O)c12 [Example 48, (R)-8-acetyl-6-cyclopropyl-2-methyl-4-((1-(2-methyl-3-(trifluoromethyl)phenyl)ethyl)amino)-2,6-dihydropyrido[3,4-d]pyridazine-1,7-dione]
20 | 47.3 nM | 17 nM | C[C@@H](Nc1nn(C)c(=O)c2cc(=O)n(C3CC4(COC4)C3)cc12)c1cccc(C(F)F)c1F [Example 51, (R)-4-((1-(3-(difluoromethyl)-2-fluorophenyl)ethyl)amino)-2-methyl-6-(2-oxaspiro[3.3]heptan-6-yl)pyrido[3,4-d]pyridazine-1,7(2H,6H)-dione]
21 | 1930 nM | 530 nM | C[C@@H](Nc1nn(C)c(=O)c2cc(=O)n(C3CC3)cc12)c1cc(Br)cs1 [Example 56, (R)-4-((1-(4-bromothiophen-2-yl)ethyl)amino)-6-cyclopropyl-2-methyl-2,6-dihydropyrido[3,4-d]pyridazine-1,7-dione]
22 | 75.3 nM | 13 nM | C[C@@H](Nc1nn(C)c(=O)c2cc(=O)n(C3CCOCC3)cc12)c1cccc2sccc12 [Example 62, (R)-4-((1-(benzo[b]thiophen-4-yl)ethyl)amino)-2-methyl-6-(tetrahydro-2H-pyran-4-yl)-2,6-dihydropyrido[3,4-d]pyridazine-1,7-dione]
